These results are taken from patent US10780090B2, “Heteroaryl compounds useful as inhibitors of SUMO activating enzyme” (Millennium Pharmaceuticals, Inc., priority 2014, dated 2020).

Read-outs that look alike come from different tables or passages of the source.

The target in this experiment is recombinant human SAE enzyme (Homo sapiens (Human), UniProt Q9UBT2). Nature of the experiment: SAE HTRF enzyme assay. It is filed as biochemical. The following applies: for inhibition at 0.111 µM: read-out: Percent Inhibition. The gist of the method:
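Human SAE (0.11 nM) with 0.5 μM ATP, 0.125 μM Sumo-Flag and 0.01 μM Ubc9-GST in HEPES pH 7.5, 5 mM MgCl2, 250 μM GSH; 105 min at 24 °C. Stopped with EDTA; HTRF read after 2 h with Eu-anti-Flag and APC-anti-GST. Percent inhibition or IC50 reported.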

Setting [1] is: SAE inhibition at compound concentration 0.111 μM.
The mark [2] stands for this setting: SAE inhibition, class symbols, legend in nM.

Sequence of recombinant human SAE enzyme (Q9UBT2 whole entry): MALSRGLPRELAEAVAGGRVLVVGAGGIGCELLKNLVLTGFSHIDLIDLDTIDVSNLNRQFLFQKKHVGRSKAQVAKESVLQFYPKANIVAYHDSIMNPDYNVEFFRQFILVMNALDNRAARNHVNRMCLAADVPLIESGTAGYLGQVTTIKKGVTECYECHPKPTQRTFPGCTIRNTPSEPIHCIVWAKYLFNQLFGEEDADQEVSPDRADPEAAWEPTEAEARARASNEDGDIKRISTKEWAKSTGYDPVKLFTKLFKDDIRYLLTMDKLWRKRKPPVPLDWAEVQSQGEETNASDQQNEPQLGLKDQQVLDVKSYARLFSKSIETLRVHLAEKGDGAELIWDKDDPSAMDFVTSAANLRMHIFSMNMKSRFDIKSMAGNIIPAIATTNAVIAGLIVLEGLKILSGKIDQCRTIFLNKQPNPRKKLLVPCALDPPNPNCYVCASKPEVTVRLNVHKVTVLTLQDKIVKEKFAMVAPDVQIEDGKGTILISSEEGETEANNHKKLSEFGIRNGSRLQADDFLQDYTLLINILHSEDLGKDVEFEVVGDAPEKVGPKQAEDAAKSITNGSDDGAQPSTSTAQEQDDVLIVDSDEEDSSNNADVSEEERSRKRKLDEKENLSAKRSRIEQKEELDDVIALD
Sequence of recombinant human SAE enzyme (Q9UBE0 whole entry partner): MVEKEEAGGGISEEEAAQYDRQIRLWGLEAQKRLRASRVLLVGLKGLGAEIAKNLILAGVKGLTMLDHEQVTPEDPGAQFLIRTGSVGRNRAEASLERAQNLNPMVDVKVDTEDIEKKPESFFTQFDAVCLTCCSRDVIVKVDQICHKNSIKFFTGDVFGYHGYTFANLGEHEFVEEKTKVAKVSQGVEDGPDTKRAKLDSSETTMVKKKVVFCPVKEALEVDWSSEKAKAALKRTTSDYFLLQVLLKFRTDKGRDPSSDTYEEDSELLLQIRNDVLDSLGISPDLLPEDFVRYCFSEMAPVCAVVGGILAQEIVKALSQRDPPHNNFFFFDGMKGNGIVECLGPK

Consider `NS(=O)(=O)OC[C@H]1C[C@@H](Nc2ncncc2C(=O)c2cc([S@+]([O-])c3cccc(C(F)(F)F)c3)c(Cl)s2)C[C@@H]1O` (mixture of isomers) [I-122, [(1R,2S,4R)-4-({5-[(5-chloro-4-{(R)-[3-(trifluoromethyl)phenyl]sulfinyl}-2-thienyl)carbonyl]pyrimidin-4-yl}amino)-2-hydroxycyclopentyl]methyl sulfamate and [(1R,2S,4R)-4-({5-[(5-chloro-4-{(S)-[3-(trifluoromethyl)phenyl]sulfinyl}-2-thienyl)carbonyl]pyrimidin-4-yl}amino)-2-hydroxycyclopentyl]methyl sulfamate], for which, under “Concentration 0.111 μM”, the “Percent Inhibition” value is given as 98. The IC50 (class symbols A/B/C) is below 10 nM.
As to `NS(=O)(=O)OC[C@H]1C[C@@H](Nc2ncncc2C(=O)c2ncc(Cc3ccccc3)s2)[C@H](O)[C@@H]1O` [I-350, [(1R,2R,3S,4R)-4-({5-[(5-benzyl-1,3-thiazol-2-yl)carbonyl]pyrimidin-4-yl}amino)-2,3-dihydroxycyclopentyl]methyl sulfamate], under setting [1], the inhibition at 0.111 µM is 75%. Under setting [2], the IC50 fell in the range of 10 to 100 nM.
Regarding `COc1ccc(Cl)cc1[C@@H](O)c1cc(C(=O)c2cncnc2N[C@@H]2C[C@H](COS(N)(=O)=O)[C@@H](O)C2)sc1Cl` (mixture of isomers) [I-63, [(1R,2S,4R)-4-{[5-({5-chloro-4-[(R)-(5-chloro-2-methoxyphenyl)(hydroxy)methyl]-2-thienyl}carbonyl)pyrimidin-4-yl]amino}-2-hydroxycyclopentyl]methyl sulfamate and [(1R,2S,4R)-4-{[5-({5-chloro-4-[(S)-(5-chloro-2-methoxyphenyl)(hydroxy)methyl]-2-thienyl}carbonyl)pyrimidin-4-yl]amino}-2-hydroxycyclopentyl]methyl sulfamate], the “Percent Inhibition” value (Concentration 0.111 μM) was 97. Further, the IC50 (class symbols A/B/C) was below 10 nM.
With `CC(O)(c1cccc(Cl)c1)c1csc(C(=O)c2cncnc2N[C@@H]2C[C@H](COS(N)(=O)=O)[C@@H](O)C2)c1` (single isomer, unassigned) [I-5a, [(1R,2S,4R)-4-{[5-({4-[(1R)-1-(3-chlorophenyl)-1-hydroxyethyl]-2-thienyl}carbonyl)pyrimidin-4-yl]amino}-2-hydroxycyclopentyl]methyl sulfamate or [(1R,2S,4R)-4-{[5-({4-[(1S)-1-(3-chlorophenyl)-1-hydroxyethyl]-2-thienyl}carbonyl)pyrimidin-4-yl]amino}-2-hydroxycyclopentyl]methyl sulfamate], the “Percent Inhibition” value (Concentration 0.111 μM) is recorded as 86. For the setting “class symbols A/B/C”, the IC50 is 10 to 100 nM.
With `NS(=O)(=O)OC[C@H]1C[C@@H](Nc2ncncc2C(=O)c2cc(Cc3cccc(Br)c3)cs2)[C@H](O)[C@@H]1O` [I-26, {(1R,2R,3S,4R)-4-[(5-{[4-(3-Bromobenzyl)-2-thienyl]carbonyl}pyrimidin-4-yl)amino]-2,3-dihydroxycyclopentyl}methyl sulfamate], the inhibition at 0.111 µM (Concentration 0.111 μM) came to 100%. For the same compound, for the setting “class symbols A/B/C”, the IC50 is below 10 nM.
`Cc1ccc2c(n1)C(c1cc(C(=O)c3cncnc3N[C@@H]3C[C@H](COS(N)(=O)=O)[C@@H](O)C3)sc1C)OCC2` (single isomer, unassigned) [I-291a, [(1R,2S,4R)-2-hydroxy-4-{[5-({5-methyl-4-[(8S)-2-methyl-5,8-dihydro-6H-pyrano[3,4-b]pyridin-8-yl]-2-thienyl}carbonyl)pyrimidin-4-yl]amino}cyclopentyl]methyl sulfamate or [(1R,2S,4R)-2-hydroxy-4-{[5-({5-methyl-4-[(8R)-2-methyl-5,8-dihydro-6H-pyrano[3,4-b]pyridin-8-yl]-2-thienyl}carbonyl)pyrimidin-4-yl]amino}cyclopentyl]methyl sulfamate]: the “Percent Inhibition” value under setting [1] is 17%. For the same compound, the IC50 under setting [2] fell in the range of 100 to 1000 nM.
On to `Cc1sc(C(=O)c2cncnc2N[C@@H]2C[C@H](COS(N)(=O)=O)[C@@H](O)C2)cc1[C@H]1OCC(F)(F)c2ccc(Cl)nc21` (mixture of isomers) [I-260, [(1R,2S,4R)-4-{[5-({4-[(8R)-2-chloro-5,5-difluoro-5,8-dihydro-6H-pyrano[3,4-b]pyridin-8-yl]-5-methyl-2-thienyl}carbonyl)pyrimidin-4-yl]amino}-2-hydroxycyclopentyl]methyl sulfamate and [(1R,2S,4R)-4-{[5-({4-[(8S)-2-chloro-5,5-difluoro-5,8-dihydro-6H-pyrano[3,4-b]pyridin-8-yl]-5-methyl-2-thienyl}carbonyl)pyrimidin-4-yl]amino}-2-hydroxycyclopentyl]methyl sulfamate], for which, for the setting “Concentration 0.111 μM”, the “Percent Inhibition” value is on record as 98. Under “class symbols A/B/C”, the IC50 was below 10 nM.
For `NS(=O)(=O)OC[C@H]1C[C@@H](Nc2ncncc2C(=O)c2cc([C@@H]3NCc4ccc(Cl)cc43)c(Cl)s2)C[C@@H]1O` (single isomer, unassigned) [I-262a, [(1R,2S,4R)-4-{[5-({5-chloro-4-[(1R)-6-chloro-2,3-dihydro-1H-isoindol-1-yl]-2-thienyl}carbonyl)pyrimidin-4-yl]amino}-2-hydroxycyclopentyl]methyl sulfamate or [(1R,2S,4R)-4-{[5-({5-chloro-4-[(1S)-6-chloro-2,3-dihydro-1H-isoindol-1-yl]-2-thienyl}carbonyl)pyrimidin-4-yl]amino}-2-hydroxycyclopentyl]methyl sulfamate], where the note is “Concentration 0.111 μM”, the “Percent Inhibition” value turned out to be 98. The IC50 (class symbols A/B/C) was below 10 nM.
Turning to `Cc1oc(C(=O)c2cncnc2N[C@@H]2C[C@H](COS(N)(=O)=O)[C@@H](O)C2)cc1C1OCCc2ccccc21` (single isomer, unassigned) [I-272a, {(1R,2S,4R)-4-[(5-{4-[(1R)-3,4-dihydro-1H-isochromen-1-yl]-5-methyl-2-furoyl}pyrimidin-4-yl)amino]-2-hydroxycyclopentyl}methyl sulfamate or {(1R,2S,4R)-4-[(5-{4-[(1S)-3,4-dihydro-1H-isochromen-1-yl]-5-methyl-2-furoyl}pyrimidin-4-yl)amino]-2-hydroxycyclopentyl}methyl sulfamate], the “Percent Inhibition” value (Concentration 0.111 μM) worked out at 96. Where the note is “class symbols A/B/C”, the IC50 was below 10 nM.
In the case of `C[C@H](O)c1cc(C(=O)c2cncnc2N[C@@H]2C[C@H](COS(N)(=O)=O)[C@@H](O)C2)sc1Cl` (mixture of isomers) [I-226, [(1R,2S,4R)-4-{[5-({5-Chloro-4-[(1S)-1-hydroxyethyl]-2-thienyl}carbonyl)pyrimidin-4-yl]amino}-2-hydroxycyclopentyl]methyl sulfamate and [(1R,2S,4R)-4-{[5-({5-Chloro-4-[(1R)-1-hydroxyethyl]-2-thienyl}carbonyl)pyrimidin-4-yl]amino}-2-hydroxycyclopentyl]methyl sulfamate], the “Percent Inhibition” value (Concentration 0.111 μM) was determined as 33. In addition, where the note is “class symbols A/B/C”, the IC50 was 100 to 1000 nM.
Regarding `COc1ccc2c(n1)[C@H](c1cc(C(=O)c3cncnc3N[C@@H]3C[C@H](COS(N)(=O)=O)[C@@H](O)C3)sc1C)OCC2` (mixture of isomers) [I-339, [(1R,2S,4R)-2-hydroxy-4-{[5-({4-[(8S)-2-methoxy-5,8-dihydro-6H-pyrano[3,4-b]pyridin-8-yl]-5-methyl-2-thienyl}carbonyl)pyrimidin-4-yl]amino}cyclopentyl]methyl sulfamate and [(1R,2S,4R)-2-hydroxy-4-{[5-({4-[(8R)-2-methoxy-5,8-dihydro-6H-pyrano[3,4-b]pyridin-8-yl]-5-methyl-2-thienyl}carbonyl)pyrimidin-4-yl]amino}cyclopentyl]methyl sulfamate], the “Percent Inhibition” value under setting [1] is 99%. Further, under setting [2], the IC50 was below 10 nM.
Turning to `NS(=O)(=O)OC[C@H]1C[C@@H](Nc2ncncc2C(=O)c2cc([C@@H]3OCCCc4ccc(Cl)cc43)cs2)C[C@@H]1O` (single isomer, unassigned) [I-314a, [(1R,2S,4R)-4-{[5-({4-[(1R)-8-chloro-1,3,4,5-tetrahydro-2-benzoxepin-1-yl]-2-thienyl}carbonyl)pyrimidin-4-yl]amino}-2-hydroxycyclopentyl]methyl sulfamate or [(1R,2S,4R)-4-{[5-({4-[(1S)-8-chloro-1,3,4,5-tetrahydro-2-benzoxepin-1-yl]-2-thienyl}carbonyl)pyrimidin-4-yl]amino}-2-hydroxycyclopentyl]methyl sulfamate], the “Percent Inhibition” value under setting [1] came to 49%. Moreover, the IC50 under setting [2] fell in the range of 100 to 1000 nM.
Turning to `NS(=O)(=O)OC[C@H]1C[C@@H](Nc2ncncc2C(=O)c2cc(C(=O)c3ccccc3)co2)C[C@@H]1O` [I-208, [(1R,2S,4R)-4-{[5-(4-benzoyl-2-furoyl)pyrimidin-4-yl]amino}-2-hydroxycyclopentyl]methyl sulfamate], the inhibition at 0.111 µM (Concentration 0.111 μM) was 46%. Also, for the setting “class symbols A/B/C”, the IC50 was 100 to 1000 nM.
In the case of `NS(=O)(=O)OC[C@H]1C[C@@H](Nc2ncncc2C(=O)c2cc([C@H](O)C3CCOCC3)c(Cl)s2)C[C@@H]1O` (mixture of isomers) [I-174, [(1R,2S,4R)-4-{[5-({5-chloro-4-[(R)-hydroxy(tetrahydro-2H-pyran-4-yl)methyl]-2-thienyl}carbonyl)pyrimidin-4-yl]amino}-2-hydroxycyclopentyl]methyl sulfamate and [(1R,2S,4R)-4-{[5-({5-chloro-4-[(S)-hydroxy(tetrahydro-2H-pyran-4-yl)methyl]-2-thienyl}carbonyl)pyrimidin-4-yl]amino}-2-hydroxycyclopentyl]methyl sulfamate], the “Percent Inhibition” value (Concentration 0.111 μM) was determined as 89. The IC50 (class symbols A/B/C) fell in the range of 10 to 100 nM.
For `N#Cc1ccccc1OCc1csc(C(=O)c2cncnc2N[C@@H]2C[C@H](COS(N)(=O)=O)[C@@H](O)C2)c1` [I-124, [(1R,2S,4R)-4-{[5-({4-[(2-cyanophenoxy)methyl]-2-thienyl}carbonyl)pyrimidin-4-yl]amino}-2-hydroxycyclopentyl]methyl sulfamate], the inhibition at 0.111 µM (Concentration 0.111 μM) turned out to be 97%. Moreover, for the setting “class symbols A/B/C”, the 50% inhibitory concentration (IC50) was below 10 nM.

In general, IC50 refers to the concentration needed to halve the response being measured. A word on the inhibition: it is the percentage by which the read-out fell short of the control.
